Laboratory results taken from ChEMBL document CHEMBL1201862, “PubChem BioAssay data set” (2004).
Active and inactive are the calls of the source.

How the values were obtained:
[1] = target: NAD-dependent protein deacylase sirtuin-5, mitochondrial (Homo sapiens, UniProt Q9NXA8); assay: sirtuin-5 deacylation blockers, concentration series – biochemical, fluorescence imaging, cherry-pick, set 5, dose response (AID 720591);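 further: desuccinylation of succinyl peptide AMC substrate read as fluorescence after trypsin release; potency of inhibitors that lower fluorescence and may act on trypsin instead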
[2] = target: T1, Methionyl-tRNA synthetase, putative (Trypanosoma brucei brucei, UniProt Q38C91); format: functional, Trypanosoma brucei brucei strain 927/4 GUTat10.1
T1 sequence (Q38C91 whole entry): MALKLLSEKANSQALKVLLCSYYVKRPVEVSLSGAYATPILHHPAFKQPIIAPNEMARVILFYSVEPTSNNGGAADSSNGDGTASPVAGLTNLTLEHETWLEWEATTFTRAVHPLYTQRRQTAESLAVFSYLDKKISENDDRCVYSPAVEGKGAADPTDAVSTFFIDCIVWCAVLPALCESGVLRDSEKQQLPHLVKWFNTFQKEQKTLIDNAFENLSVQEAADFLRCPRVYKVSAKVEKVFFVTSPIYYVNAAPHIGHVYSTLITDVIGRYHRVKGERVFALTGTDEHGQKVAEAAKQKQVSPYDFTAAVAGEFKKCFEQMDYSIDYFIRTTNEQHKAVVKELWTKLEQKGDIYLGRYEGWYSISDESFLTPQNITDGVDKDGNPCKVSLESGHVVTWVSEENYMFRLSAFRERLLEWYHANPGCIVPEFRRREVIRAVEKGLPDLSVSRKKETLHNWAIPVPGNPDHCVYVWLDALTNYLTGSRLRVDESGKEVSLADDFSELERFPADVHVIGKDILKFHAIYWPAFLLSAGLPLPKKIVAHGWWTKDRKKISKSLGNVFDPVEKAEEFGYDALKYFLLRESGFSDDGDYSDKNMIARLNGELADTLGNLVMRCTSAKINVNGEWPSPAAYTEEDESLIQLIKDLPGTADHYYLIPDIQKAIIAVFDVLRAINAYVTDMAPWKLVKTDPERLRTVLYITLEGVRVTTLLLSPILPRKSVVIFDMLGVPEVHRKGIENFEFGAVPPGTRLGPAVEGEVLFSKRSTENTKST

[3] = Counterscreen for inhibitors of Trypanosoma brucei methionyl tRNA synthetase (MetRS): Luminescence-based cell-based high throughput dose response assay to identify compounds that are cytotoxic to Jurkat human T lymphocyte cells.; format: functional
[4] = target: T1, Methionyl-tRNA synthetase, putative; format: functional, Trypanosoma brucei brucei strain 927/4 GUTat10.1; remark: listed apart in the source
[5] = Late stage counterscreen for inhibitors of Trypanosoma brucei methionyl tRNA synthetase (MetRS): Luminescence-based cell-based high throughput dose response assay to identify compounds that are cytotoxic to Jurkat human T lymphocyte cells.; format: functional
Fatty acid synthase [6] = target: T2, Fatty acid synthase (Homo sapiens, UniProt P49327); assay: inhibition of human FAS-TE enzyme activity – biochemical, endpoint fluorescence intensity, uHTS hits, dose response (AID 624327); format: functional;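 further: fluorescence from hydrolysis of an O-methyl fluorescein acyl ester substrate by the enzyme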
[7] = viability loss in HeLa cells – cytotoxicity control for MgcRacGAP inhibitor project, dose response (AID 624300); format: functional
[8] = target: T3, Rac GTPase-activating protein 1 (Homo sapiens, UniProt Q9H0H5); assay: blockers of MgcRacGAP-driven Rac1 GTP hydrolysis – biochemical, ADP Hunter fluorescence, primary and confirmatory, confirmation (AID 624330); format: functional
T3 sequence (Q9H0H5 whole entry): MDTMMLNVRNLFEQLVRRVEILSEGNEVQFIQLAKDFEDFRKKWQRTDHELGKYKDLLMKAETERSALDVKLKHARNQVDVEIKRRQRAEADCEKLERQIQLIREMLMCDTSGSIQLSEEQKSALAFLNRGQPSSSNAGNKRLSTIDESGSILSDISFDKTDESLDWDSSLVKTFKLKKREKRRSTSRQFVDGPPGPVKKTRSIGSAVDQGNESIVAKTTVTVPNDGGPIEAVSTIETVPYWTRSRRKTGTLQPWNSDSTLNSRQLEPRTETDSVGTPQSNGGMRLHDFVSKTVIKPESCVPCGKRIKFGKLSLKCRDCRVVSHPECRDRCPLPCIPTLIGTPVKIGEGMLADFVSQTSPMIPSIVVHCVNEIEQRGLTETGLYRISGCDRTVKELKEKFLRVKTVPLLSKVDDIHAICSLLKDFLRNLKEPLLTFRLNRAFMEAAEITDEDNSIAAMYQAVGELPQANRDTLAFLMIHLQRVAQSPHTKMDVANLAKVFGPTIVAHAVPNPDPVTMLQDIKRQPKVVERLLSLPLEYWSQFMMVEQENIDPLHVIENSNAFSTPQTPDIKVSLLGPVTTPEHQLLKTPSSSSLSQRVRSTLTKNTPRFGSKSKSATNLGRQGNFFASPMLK

Fatty acid synthase [9] = target: T2, Fatty acid synthase; assay: inhibition of human FAS-TE enzyme activity – biochemical, kinetic fluorescence intensity, dose response (AID 624326); format: functional;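 further: rate of fluorescence rise from hydrolysis of a fluorogenic O-methyl fluorescein ester substrate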
[10] = Luminescence-based cell-based high throughput dose response assay to identify activators of the DAF-12 from the parasite S. stercoralis (ssDAF-12).; format: functional
[11] = target: T4, Oxysterols receptor LXR-beta (Homo sapiens, UniProt P55055); assay: LXR agonists, Gal4 luciferase reporter, dose response, counter-screen for ssDAF-12 agonist project, cell-based, luminescence, HEK293, S. stercoralis campaign (AID 720737); format: functional; details: read-out: IC50 (the source's name)
T4 sequence (P55055 whole entry): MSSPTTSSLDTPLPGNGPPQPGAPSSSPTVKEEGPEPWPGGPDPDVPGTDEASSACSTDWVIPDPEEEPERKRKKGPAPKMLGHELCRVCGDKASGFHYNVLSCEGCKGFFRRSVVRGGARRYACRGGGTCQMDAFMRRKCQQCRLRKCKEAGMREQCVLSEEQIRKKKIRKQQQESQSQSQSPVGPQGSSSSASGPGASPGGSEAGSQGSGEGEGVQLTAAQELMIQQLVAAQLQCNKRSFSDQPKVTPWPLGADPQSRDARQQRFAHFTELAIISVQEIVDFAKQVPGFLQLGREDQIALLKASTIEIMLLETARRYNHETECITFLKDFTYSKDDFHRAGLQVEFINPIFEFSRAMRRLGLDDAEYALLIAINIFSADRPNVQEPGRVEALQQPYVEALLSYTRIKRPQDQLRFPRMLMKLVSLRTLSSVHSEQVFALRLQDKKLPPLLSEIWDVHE

cells [12] = assay: cells
Kallikrein-7 = Kallikrein-7 (Homo sapiens, UniProt P49862); assay: Fluorescence Intensity-based biochemical primary high throughput dose response assay to identify activators of kallikrein-7 (K7) zymogen.
[13] = optical artefact potency, substrate without enzyme – biochemical, fluorescence intensity, triplicate, artefact control for kallikrein-7 zymogen activator project, dose response (AID 720493)
[14] = target: Endoplasmic reticulum aminopeptidase 1 (Homo sapiens, UniProt Q9NZ08); assay: inhibition of human ERAP1 enzyme activity – biochemical, cherry-pick, set 2, plate reader, dose response (AID 743314)
[15] = blockers of HIV-1 envelope-mediated cell-cell fusion – cherry-pick, dose response (AID 652057); format: functional, cell-based
[16] = HIV-1 AD8 envelope cell-cell fusion blockers – cherry-pick, dose response (AID 652062); format: functional, cell-based;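 further: luciferase signal from cell-cell fusion driven by HIV-1 clade B AD8 Env; potency is for inhibitors of fusion seen as a drop in luminescence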
[17] = inhibition of Env-driven cell fusion – HIV entry, plate reader, dry powder, dose response (AID 687023); format: functional, cell-based
[18] = viability loss in CEM21 cells – cell-based, plate reader, dry powder, cytotoxicity control, dose response (AID 687026); format: functional
[19] = COV362 cell viability loss – plate reader, dry powder, SA12, cytotoxicity control for PAX8 inhibitor project, dose response (AID 743144); format: functional, cell-based
[20] = toxicity toward immortalized ovarian surface epithelium – cell-based, plate reader, dry powder samples, cytotoxicity control for PAX8 inhibitor project, dose response (AID 743045); format: functional
[21] = OVCAR-3 cell viability loss – plate reader, dry powder samples, PAX8 inhibitor project, dose response (AID 743044); format: functional, cell-based
[22] = IGROV1 cell killing – plate reader, dry powder samples, PAX8 inhibitor project, dose response (AID 743043); format: functional, cell-based; details: IGROV-1
[23] = OVCAR4 cell viability loss – plate reader, dry powder, SA11, cytotoxicity control for PAX8 inhibitor project, dose response (AID 743150); format: functional, cell-based; details: OVCAR-4
[24] = COV434 cell viability loss – plate reader, dry powder, SA7, cytotoxicity control for PAX8 inhibitor project, dose response (AID 743145); format: functional, cell-based
[25] = OV-90 cell viability loss – plate reader, dry powder, SA8, PAX8 inhibitor project, dose response (AID 743149); format: functional, cell-based
[26] = PAX8-dependent cell viability loss – plate reader, dry powder, dose response (AID 743049); format: functional, cell-based
[27] = A549 cell cytotoxicity, dose response, cytotoxicity control, plate reader, cherry-pick, antagonist series (AID 743412); format: functional, cell-based
[28] = inhibition of bursicon-driven LGR2 cAMP signaling – cell-based, HEK293, CRE-luciferase reporter, cherry pick, dose response (AID 743342); format: functional
[29] = blockade of melanocortin 4 receptor signaling – cell-based, plate reader, cherry pick, counter-screen for LGR2 antagonist project, dose response (AID 743444); format: functional;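 further: transfected HEK 293 cells stimulated with alpha-MSH peptide; potency of inhibitors of the alpha-MSH evoked signal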
[30] = viability loss in HEK293 cells – cell-based, plate reader, cherry-picked samples, cytotoxicity control, dose response (AID 743446); format: functional
[31] = inhibition of mouse IRAP aminopeptidase activity – biochemical, Leu-AMC fluorescence, cherry-picked samples, set 2, selectivity assay for ERAP1 modulator project, dose response (AID 743340)
H4 = assay: Luminescence Cell-Based Dose Response HTS to Identify Activators of 5'UTR Stem-Loop Driven Prion Protein mRNA Translation in H4 Neuroglioblastoma Cells. [Related pubchem assays: 1829 (Project Summary), 1814 (Primary HTS)]; format: functional; details: Homo sapiens
[32] = target: T4, Oxysterols receptor LXR-beta; format: functional, cell-based
cells [33] = assay: cells; remark: listed apart in the source
[34] = target: T4, Oxysterols receptor LXR-beta; format: functional, cell-based; remark: listed apart in the source

T2 sequence (P49327 whole entry): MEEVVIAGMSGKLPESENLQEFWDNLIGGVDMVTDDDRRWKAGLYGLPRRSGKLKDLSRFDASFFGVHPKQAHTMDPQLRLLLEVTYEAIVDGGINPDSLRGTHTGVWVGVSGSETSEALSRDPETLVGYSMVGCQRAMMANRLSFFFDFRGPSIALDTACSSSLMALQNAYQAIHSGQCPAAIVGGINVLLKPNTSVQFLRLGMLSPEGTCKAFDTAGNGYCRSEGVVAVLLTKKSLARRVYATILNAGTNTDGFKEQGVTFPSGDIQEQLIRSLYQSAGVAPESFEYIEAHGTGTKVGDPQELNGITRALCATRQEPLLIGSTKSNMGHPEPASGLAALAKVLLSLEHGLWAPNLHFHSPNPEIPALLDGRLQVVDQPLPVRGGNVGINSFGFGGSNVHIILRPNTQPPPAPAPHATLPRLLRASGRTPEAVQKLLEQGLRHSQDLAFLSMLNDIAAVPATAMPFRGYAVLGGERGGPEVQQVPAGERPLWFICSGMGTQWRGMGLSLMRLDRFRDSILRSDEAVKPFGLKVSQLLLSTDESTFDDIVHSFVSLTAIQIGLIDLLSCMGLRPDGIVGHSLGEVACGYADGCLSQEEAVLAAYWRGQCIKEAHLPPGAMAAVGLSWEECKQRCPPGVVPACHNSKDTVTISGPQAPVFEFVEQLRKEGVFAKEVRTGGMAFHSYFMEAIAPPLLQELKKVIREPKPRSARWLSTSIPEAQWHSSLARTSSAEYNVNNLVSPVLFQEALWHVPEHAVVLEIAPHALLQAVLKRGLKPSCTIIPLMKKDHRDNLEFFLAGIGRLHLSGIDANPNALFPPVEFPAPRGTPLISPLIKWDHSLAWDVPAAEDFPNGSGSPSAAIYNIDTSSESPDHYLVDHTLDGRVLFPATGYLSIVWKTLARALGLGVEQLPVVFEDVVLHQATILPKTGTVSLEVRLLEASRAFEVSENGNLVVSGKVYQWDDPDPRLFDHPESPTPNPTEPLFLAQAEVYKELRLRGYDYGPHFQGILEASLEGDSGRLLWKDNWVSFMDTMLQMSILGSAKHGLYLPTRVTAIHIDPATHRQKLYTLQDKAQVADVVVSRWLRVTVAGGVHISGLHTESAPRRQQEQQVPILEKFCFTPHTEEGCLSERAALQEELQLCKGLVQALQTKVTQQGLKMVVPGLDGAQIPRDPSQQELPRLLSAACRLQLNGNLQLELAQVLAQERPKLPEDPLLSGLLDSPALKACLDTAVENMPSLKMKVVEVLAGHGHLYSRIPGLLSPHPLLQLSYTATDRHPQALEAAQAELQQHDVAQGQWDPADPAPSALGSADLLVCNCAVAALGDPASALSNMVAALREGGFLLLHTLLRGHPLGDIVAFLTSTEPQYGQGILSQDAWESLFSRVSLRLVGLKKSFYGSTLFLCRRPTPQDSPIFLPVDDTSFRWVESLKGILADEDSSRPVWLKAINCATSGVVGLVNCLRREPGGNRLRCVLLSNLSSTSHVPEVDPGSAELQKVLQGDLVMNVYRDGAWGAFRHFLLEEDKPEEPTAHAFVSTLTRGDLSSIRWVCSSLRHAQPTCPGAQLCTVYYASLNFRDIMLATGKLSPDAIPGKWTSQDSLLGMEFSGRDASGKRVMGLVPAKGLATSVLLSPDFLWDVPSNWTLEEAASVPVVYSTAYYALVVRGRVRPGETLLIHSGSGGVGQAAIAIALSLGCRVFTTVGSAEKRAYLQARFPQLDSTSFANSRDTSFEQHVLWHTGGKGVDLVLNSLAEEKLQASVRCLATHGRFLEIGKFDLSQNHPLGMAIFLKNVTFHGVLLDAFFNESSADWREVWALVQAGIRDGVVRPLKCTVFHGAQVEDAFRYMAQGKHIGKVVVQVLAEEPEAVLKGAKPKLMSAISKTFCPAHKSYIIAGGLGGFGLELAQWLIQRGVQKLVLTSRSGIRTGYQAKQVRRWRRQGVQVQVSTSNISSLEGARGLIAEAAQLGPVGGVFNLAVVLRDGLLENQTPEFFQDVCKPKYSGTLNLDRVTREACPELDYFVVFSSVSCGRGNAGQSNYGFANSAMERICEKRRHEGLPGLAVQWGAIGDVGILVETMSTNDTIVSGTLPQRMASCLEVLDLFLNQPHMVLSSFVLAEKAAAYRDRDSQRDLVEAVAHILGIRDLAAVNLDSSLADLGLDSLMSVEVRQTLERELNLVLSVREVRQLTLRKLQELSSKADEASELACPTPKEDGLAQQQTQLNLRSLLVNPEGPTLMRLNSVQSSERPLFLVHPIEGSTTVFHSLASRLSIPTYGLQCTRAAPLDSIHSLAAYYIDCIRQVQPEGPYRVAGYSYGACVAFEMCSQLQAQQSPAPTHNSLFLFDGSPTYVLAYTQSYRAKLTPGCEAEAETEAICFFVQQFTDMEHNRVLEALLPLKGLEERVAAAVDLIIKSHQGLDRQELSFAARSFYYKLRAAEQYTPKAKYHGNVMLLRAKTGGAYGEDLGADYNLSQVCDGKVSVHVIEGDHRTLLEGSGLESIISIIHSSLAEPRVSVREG
Sequence of Kallikrein-7 (P49862 whole entry): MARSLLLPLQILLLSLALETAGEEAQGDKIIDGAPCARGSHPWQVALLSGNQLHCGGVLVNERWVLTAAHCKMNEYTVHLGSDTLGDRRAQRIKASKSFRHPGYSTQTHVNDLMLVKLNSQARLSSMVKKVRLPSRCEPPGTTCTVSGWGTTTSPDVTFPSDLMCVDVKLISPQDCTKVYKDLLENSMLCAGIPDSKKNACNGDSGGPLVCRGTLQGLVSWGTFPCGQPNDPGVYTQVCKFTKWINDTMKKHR
Sequence of Endoplasmic reticulum aminopeptidase 1 (Q9NZ08 whole entry, the tested form may be a part): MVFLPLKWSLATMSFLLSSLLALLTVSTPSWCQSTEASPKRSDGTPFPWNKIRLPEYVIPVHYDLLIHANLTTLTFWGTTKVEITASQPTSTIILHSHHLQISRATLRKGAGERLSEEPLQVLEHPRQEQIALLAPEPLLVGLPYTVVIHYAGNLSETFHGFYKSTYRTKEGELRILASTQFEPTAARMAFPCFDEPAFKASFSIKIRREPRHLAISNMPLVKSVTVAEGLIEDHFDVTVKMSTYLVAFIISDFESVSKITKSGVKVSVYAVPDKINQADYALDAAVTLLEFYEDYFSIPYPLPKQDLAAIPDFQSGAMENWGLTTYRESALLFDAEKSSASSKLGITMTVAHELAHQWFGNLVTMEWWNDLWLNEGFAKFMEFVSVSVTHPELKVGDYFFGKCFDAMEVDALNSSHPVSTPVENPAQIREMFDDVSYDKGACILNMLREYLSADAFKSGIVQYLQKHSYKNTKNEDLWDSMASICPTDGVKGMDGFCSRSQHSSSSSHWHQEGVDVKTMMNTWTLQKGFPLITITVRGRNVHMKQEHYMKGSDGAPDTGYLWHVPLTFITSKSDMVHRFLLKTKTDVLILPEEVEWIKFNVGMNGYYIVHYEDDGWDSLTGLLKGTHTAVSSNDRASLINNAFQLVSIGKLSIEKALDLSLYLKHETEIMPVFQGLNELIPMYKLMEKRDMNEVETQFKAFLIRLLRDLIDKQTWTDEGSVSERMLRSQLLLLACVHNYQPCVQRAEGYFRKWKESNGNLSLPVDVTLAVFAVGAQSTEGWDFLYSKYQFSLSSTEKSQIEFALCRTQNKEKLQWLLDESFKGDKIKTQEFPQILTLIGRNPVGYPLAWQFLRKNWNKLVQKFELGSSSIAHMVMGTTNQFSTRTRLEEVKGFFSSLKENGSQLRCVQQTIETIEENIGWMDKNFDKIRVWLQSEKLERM
Sequence of NAD-dependent protein deacylase sirtuin-5, mitochondrial (Q9NXA8 whole entry): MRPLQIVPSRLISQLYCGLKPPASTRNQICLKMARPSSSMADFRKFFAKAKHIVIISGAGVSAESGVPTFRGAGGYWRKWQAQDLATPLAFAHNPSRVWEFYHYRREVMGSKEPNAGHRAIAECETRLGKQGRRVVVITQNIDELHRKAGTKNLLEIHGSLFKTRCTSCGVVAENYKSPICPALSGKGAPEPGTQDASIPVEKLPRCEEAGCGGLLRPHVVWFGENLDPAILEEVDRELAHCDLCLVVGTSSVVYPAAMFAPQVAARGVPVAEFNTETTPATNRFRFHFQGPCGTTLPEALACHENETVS

Cc1cccc(Cn2c(N(C)CCO)nc3c2c(=O)[nH]c(=O)n3C)c1
AC50 [1]: > 30 µM (inactive)

COc1cccc(NC(=O)CSc2n[nH]c3c4cc(C)ccc4nc-3n2)c1
IC50 [2]: 101 nM (active) | IC50 [3]: 83.3 µM (inactive) | IC50 [4]: 48.3 nM (active) | IC50 [5]: > 83.3 µM (inactive)

CCC(C)n1c(=S)[nH]c2c(sc3ccc([N+](=O)[O-])cc32)c1=O (configuration not stated)
IC50 (Fatty acid synthase [6]): 17.1 µM (active) | CC50 [7]: 100 µM (active) | IC50 [8]: 73.3 µM (active) | IC50 (Fatty acid synthase [9]): 15.5 µM (active) | IC50 [10]: > 67.5 µM (inactive) | EC50 [11]: > 67.5 µM (inactive)

CC12CC(c3ccccc3O1)C(C(=O)OCc1ccccc1)C(=O)N2 (configuration not stated)
AC50 (cells [12]): 151 nM (active)

CC1Nc2ccccc2C(=O)N1NS(C)(=O)=O (configuration not stated)
EC50 (Kallikrein-7): 10.3 µM (inactive) | EC50 [13]: > 7.73 µM (active)

CC(C)(C)c1cc(N2CCOCC2)n2ncc(-c3ccccc3)c2n1
AC50 [14]: 14.2 µM (active)

C[C@@H]1CN([C@H](C)CO)C(=O)c2cccc(NC(=O)C3CCCCC3)c2O[C@H]1CN(C)Cc1ccccc1
AC50 [15]: 12.1 µM (active) | AC50 [16]: 3.35 µM (active) | AC50 [17]: 8.1 µM (active) | AC50 [18]: 31 µM (active)

O=C(CCCN1C(=O)/C(=C\c2cccc(Br)c2)SC1=S)Nc1ccccn1
AC50 [19]: 46.2 µM (active) | AC50 [20]: 68.5 µM (active) | AC50 [21]: 18.9 µM (active) | AC50 [22]: 14.8 µM (active) | AC50 [23]: 42.7 µM (active) | AC50 [24]: 49.7 µM (active) | AC50 [25]: 36.8 µM (active) | AC50 [26]: 17.6 µM (active)

COc1ccc(S(=O)(=O)N(C)C[C@@H]2OCCCC[C@H](C)Oc3ccc(NS(=O)(=O)c4ccc(Cl)cc4)cc3C(=O)N([C@@H](C)CO)C[C@@H]2C)cc1
AC50 [27]: 5.98 µM (active) | AC50 [28]: 3.79 µM (active) | AC50 [29]: 4.58 µM (active) | AC50 [30]: 28.5 µM (active)

COc1ccc(CN(C)C[C@@H]2OCCCC[C@@H](C)Oc3ccc(NS(=O)(=O)c4c(C)noc4C)cc3C(=O)N([C@@H](C)CO)C[C@@H]2C)cc1
AC50 [31]: 16.2 µM (active)

C/C(=N\Nc1nc2c(s1)CCCC2)c1ccccc1
EC50 (H4): 5.13 µM (active) | EC50 [32]: > 67.5 µM (inactive) | EC50 (cells [33]): > 67.5 µM (inactive)

COC(=O)C1C(=O)c2c([nH]c(C(=O)OC3CCCCC3)c2C)CC1C (configuration not stated)
EC50 (H4): 8.72 µM (active) | EC50 [34]: > 67.5 µM (inactive)
